These results are taken from patent publication US20110312495A1, “SYNERGISTIC HERBICIDAL COMPOSITION CONTAINING CLOPYRALID AND FLORASULAM” (DOW AGROSCIENCES LLC, priority 2010, published 2011).

Common to all, as to assay: Postemergence herbicidal activity under field conditions, visual weed control
What all share (type): in vivo
Common to all, as to details: field trial #1, 45 to 92 days after application

Assay [1] deals with Bachelor's button (Centaurea cyanus, CENCY). The protocol:
(§1) These trials were conducted under field conditions in Germany. Trial sites were located in commercially grown winter barley and winter rye. The crops were grown using normal cultural practices for fertilization, seeding, and maintenance to ensure good growth of the crop and the weeds. The trials were conducted using normal research methodology. Trial plots were between 2.5 to 3 meters (m) wide by 6 to 10 m long. All treatments were applied using a randomized complete block trial design with 3 replications per treatment. The trial sites had naturally occurring populations of weeds. The weed spectrum included, but was not limited to, scentless mayweed (Matricaria inodora, MATIN), field forget-me-not (Myosotis arvensis, MYOAR), and Bachelor's button (Centaurea cyanus, CENCY).
(§2) Treatments consisted of formulated products applied in water. The application volumes were 200 liter per hectare (L/ha). All application were made using precision bicycle sprayers using a 3 m boom using flat fan (80° or 110°) nozzles to broadcast the treatments on the testing plots.
(§3) The treated plots and control plots were rated blind at various intervals after application. Ratings were based of Percent (%) Visual weed control, where 0 corresponds to no injury and 100 corresponds to complete kill. […]

For assay [2], the system named is field forget-me-not (Myosotis arvensis, MYOAR). The procedure: as §1, §2, §3
For assay [3], the system named is scentless mayweed (Matricaria inodora, MATIN). The protocol:
as §1, §2, §3

On to `O=C(O)c1nc(Cl)ccc1Cl` [Clopyralid, 3,6-dichloropyridine-2-carboxylic acid], for which the “CENCY Obs - Percent control observed” value was found to be 37% in assay [1] (clopyralid 30 g ae/ha alone), 57% in assay [1] (clopyralid 45 g ae/ha alone) and 73% in assay [1] (clopyralid 60 g ae/ha alone). The “MYOAR Obs - Percent control observed” value in assay [2] (clopyralid 30 g ae/ha alone), in assay [2] (clopyralid 45 g ae/ha alone) and in assay [2] (clopyralid 60 g ae/ha alone) was 0% in each case. For the same molecule, the figures for the “MATIN Obs - Percent control observed” value in assay [3] (clopyralid 30 g ae/ha alone), in assay [3] (clopyralid 45 g ae/ha alone) and in assay [3] (clopyralid 60 g ae/ha alone) were 0%, 50% and 58%, respectively.
Turning to `COc1ncc(F)c2nc(S(=O)(=O)Nc3c(F)cccc3F)nn12` [Florasulam, 2′,6′,8-trifluoro-5-methoxy[1,2,4]triazolo[1,5-c]-pyrimidine-2-sulfonanilide], the “CENCY Obs - Percent control observed” value in assay [1] (florasulam 2.5 g ai/ha alone) was found to be 20%; in assay [1] (florasulam 3.75 g ai/ha alone), 40%; in assay [1] (florasulam 5 g ai/ha alone) it was 70%. Also, the “MYOAR Obs - Percent control observed” value came out at 50% in assay [2] (florasulam 2.5 g ai/ha alone), 50% in assay [2] (florasulam 3.75 g ai/ha alone) and 67% in assay [2] (florasulam 5 g ai/ha alone). Besides, the “MATIN Obs - Percent control observed” value in assay [3] (florasulam 2.5 g ai/ha alone) came out at 60%; in assay [3] (florasulam 3.75 g ai/ha alone), 67%; in assay [3] (florasulam 5 g ai/ha alone) it was 53%.
